From patent publication EP4603105A1, “PHARMACEUTICAL COMPOSITION CONTAINING CYCLIC COMPOUND HAVING SELECTIVE KRAS INHIBITORY EFFECT AGAINST HRAS AND NRAS” (CHUGAI SEIYAKU KABUSHIKI KAISHA, priority 2022, dated 2024) come the findings set out here.

For test [1], the target named is GDP-bound KRAS wild-type protein (Homo sapiens, UniProt P01116). The test is described as follows: Binding to KRAS by surface plasmon resonance (SPR), dissociation constant KD. Particulars: Single Cycle Kinetics. The method in brief:
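Captured GDP-RAS (~100–300 RU) was exposed to increasing compound concentrations, 75 s per step, in running buffer with 10 µM GDP, 10 mM MgCl2 and 4% DMSO at pH 7.4.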
On the technique in general: SPR reads the build-up and loss of mass on a sensor chip optically.

The target of test [2] is GDP-bound NRAS wild-type protein (Homo sapiens, UniProt P01111). The test is described as follows: Binding to NRAS by surface plasmon resonance (SPR), KD and KD ratio to KRAS. Particulars: ratio of KD for GDP-bound NRAS wild-type protein to KD for KRAS. The method in brief:
(§1)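 Measured at 30°C: SPR with GDP-loaded, E. coli-expressed biotin-Avi RAS captured (~100–300 RU), ascending 75 s compound injections, HBS pH 7.4 with GDP, MgCl2, 4% DMSO. KD from 1:1 fit.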

In another test the target is HRAS wild-type protein (Homo sapiens, UniProt P01112). The test is described as follows: Binding to HRAS by surface plasmon resonance (SPR), KD and KD ratio to KRAS. The settings on record: ratio of KD for HRAS wild-type protein to KD for KRAS. The method in brief:
as §1

The test system of test [3] is human lung cancer strain NCI-H441. It is filed as cell-based. In outline:
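Signal came from […] measured per well once the reagent was added. Beforehand, cells were cultured at 37°C and 5% carbon dioxide on a compound series serially diluted in dimethyl sulfoxide.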

Test [4] deals with human gastric cancer strain SNU-1. The test is classed as cell-based. The method in brief: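 SNU-1 gastric cancer cells, 250 cells/well in RPMI-1640 with 10% FBS, glucose, HEPES and sodium pyruvate, plated onto serially diluted compound in DMSO.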
For test [5], the system named is human pancreatic cancer strain KP4. It is filed as cell-based. In outline:
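KP4 pancreatic cancer cells seeded at 500 cells/well in DMEM/Ham's F-12 with 10% FBS onto serially diluted compound. Viability read by CellTiter-Glo luminescence.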

The test system of test [6] is human colorectal cancer strain GP2d. The test is classed as cell-based. The method in brief: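 Cells seeded at 500 cells/well in DMEM with 10% FBS onto serially diluted compound in DMSO, then cultured 7 days at 37°C, 5% CO2. Viability read by CellTiter-Glo luminescence.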
Test [7] relates to human gastric cancer strain GSU. The test is classed as cell-based. The method in brief:
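Cells seeded at 200 per well in RPMI-1640 with 10% FBS onto serially diluted compound (DMSO) in U-bottom plates. Viability read by CellTiter-Glo luminescence.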

Test [8] has as its system human ovarian cancer strain OV7. It is filed as cell-based. In outline: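 OV7 cells, 250 per well, in DMEM/Ham's F-12 with 5% FBS, 0.5 µg/mL hydrocortisone and 10 µg/mL insulin, grown 7 days at 37°C with serially diluted compound. Viability by CellTiter-Glo luminescence.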
Test [9] deals with human bladder cancer strain UM-UC-3. It is filed as cell-based. The method in brief:
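UM-UC-3 human bladder cancer cells were seeded at 250 cells/well onto serially diluted compound in MEM with 10% FBS. Viability was read as CellTiter-Glo luminescence.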

Chain of HRAS wild-type protein (P01112 whole entry): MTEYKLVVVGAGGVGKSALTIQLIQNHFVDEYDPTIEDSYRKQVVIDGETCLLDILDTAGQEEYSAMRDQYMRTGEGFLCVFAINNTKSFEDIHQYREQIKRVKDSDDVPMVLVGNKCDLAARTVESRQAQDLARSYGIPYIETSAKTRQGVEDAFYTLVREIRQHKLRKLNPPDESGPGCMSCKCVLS
Chain of GDP-bound KRAS wild-type protein (P01116 1-188 isoform P01116-2): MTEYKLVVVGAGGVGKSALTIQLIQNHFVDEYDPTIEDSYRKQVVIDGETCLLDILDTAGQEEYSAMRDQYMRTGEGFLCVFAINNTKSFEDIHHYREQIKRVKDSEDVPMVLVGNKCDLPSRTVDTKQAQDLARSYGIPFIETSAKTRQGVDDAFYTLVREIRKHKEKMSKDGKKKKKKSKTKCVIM
Chain of GDP-bound NRAS wild-type protein (P01111 whole entry): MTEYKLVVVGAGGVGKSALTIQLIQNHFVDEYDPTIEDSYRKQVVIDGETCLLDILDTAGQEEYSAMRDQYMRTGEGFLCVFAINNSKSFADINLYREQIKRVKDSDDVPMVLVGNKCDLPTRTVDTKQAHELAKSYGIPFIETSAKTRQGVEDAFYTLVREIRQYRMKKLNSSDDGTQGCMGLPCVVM

For `CCC[C@H]1C(=O)N[C@@H]([C@@H](C)CC)C(=O)N2CCC[C@H]2C(=O)N(C)[C@H]2C/C=C\CCN(C2=O)[C@@H](Cc2ccc(C(F)(F)F)cc2)C(=O)N(C)CC(=O)N[C@@H](CCc2ccc(C(F)(F)F)c(OC)c2)C(=O)N2C[C@H](OCC)C[C@H]2C(=O)OC2(CCC2)C(=O)N(C)[C@@H](C2CCCC2)C(=O)N(C)[C@H](C(=O)N(C)C)CC(=O)N1C` [PP3368, (1S,4S,10S,13S,17S,20S,26S,28R,32S,38S,42Z)-20-cyclopentyl-28-ethoxy-32-[2-[3-methoxy-4-(trifluoromethyl)phenyl]ethyl]-N,N,2,14,18,21,36-heptamethyl-10-[(1S)-1-methylpropyl]-3,9,12,15,19,22,25,31,34,37,45-undecaoxo-13-propyl-38-[[4-(trifluoromethyl)phenyl]methyl]spiro[24-oxa-2,8,11,14,18,21,30,33,36,39-decazatetracyclo[37.5.1.0^4,8.0^26,30]pentatetracont-42-ene-23,1'-cyclobutane]-17-carboxamide], the affinity in [1], expressed as Kd, was 0.57 nM. Moreover, in [2], the “NRAS /KRAS” value was “A (a compound having 10 or more and less than 20 is denoted as A)”. The “HRAS /KRAS” value on HRAS wild-type protein was “A (a compound having 10 or more and less than 20 is denoted as A)”. The IC50 – broadly, the concentration that gives 50% inhibition – is 11.9 nM in [3]; 20.4 nM in test [4]; 18.6 nM in test [5]; 22.6 nM in [6]; 2.8 nM in test [7]; 42.5 nM in test [8]. This molecule also returned an IC50 in test [9] of 13.9 nM.

Turning to `CCO[C@@H]1C[C@H]2C(=O)OC3(CCC3)C(=O)N(C)[C@@H](C3CCCC3)C(=O)N(C)[C@H](C(=O)N(C)C)CC(=O)N(C)[C@@H]([C@@H](C)OC)C(=O)N[C@@H]([C@@H](C)CC)C(=O)N3CCC[C@H]3C(=O)N(C)[C@H]3C/C=C\CCN(C3=O)[C@@H](Cc3ccc(C(F)(F)F)cc3)C(=O)N(C)CC(=O)N[C@@H](CCc3ccc(C(F)(F)F)c(OC)c3)C(=O)N2C1` [PP3374], the Kd (commonly the free concentration of one partner at which half of the binding sites on the other are occupied at equilibrium, for simple one-to-one binding) in test [1] was 0.41 nM. For the same molecule, the “NRAS /KRAS” value in test [2] is “A (a compound having 10 or more and less than 20 is denoted as A)”. Also, the “HRAS /KRAS” value on HRAS wild-type protein is “A (a compound having 10 or more and less than 20 is denoted as A)”. Further, the half-maximal inhibitory concentration (IC50) in [3] came to 5.9 nM; in test [4], 7.4 nM; in test [5] it was 8.2 nM; in test [6], 6.9 nM; in test [7], 1.9 nM; in test [8] it was 15.9 nM. In test [9], the IC50 is 6.3 nM.

`CCO[C@@H]1C[C@H]2C(=O)OC3(CCC3)C(=O)N(C)[C@@H](C3CCCC3)C(=O)N(C)[C@H](C(=O)N(C)C)CC(=O)N(C)[C@@H]([C@@H](C)OC)C(=O)N[C@@H]([C@@H](C)CC)C(=O)N(C)CC(=O)N(C)[C@H]3C/C=C\CCN(C3=O)[C@@H](Cc3ccc(C(F)(F)F)cc3)C(=O)N(C)CC(=O)N[C@@H](CCc3ccc(C(F)(F)F)c(OC)c3)C(=O)N2C1` [PP3376, (2S,8S,12R,14S,20S,23S,27S,30S,36S,38Z)-20-cyclopentyl-12-ethoxy-27-[(1R)-1-methoxyethyl]-8-[2-[3-methoxy-4-(trifluoromethyl)phenyl]ethyl]-N,N,4,19,22,26,32,35-octamethyl-30-[(1S)-1-methylpropyl]-3,6,9,15,18,21,25,28,31,34,42-undecaoxo-2-[[4-(trifluoromethyl)phenyl]methyl]spiro[16-oxa-1,4,7,10,19,22,26,29,32,35-decazatricyclo[34.5.1.0^10,14]dotetracont-38-ene-17,1'-cyclobutane]-23-carboxamide] registered a Kd in test [1] of 0.096 nM. Besides, in [2], the “NRAS /KRAS” value is “A (a compound having 10 or more and less than 20 is denoted as A)”. Besides, the “HRAS /KRAS” value on HRAS wild-type protein is “A (a compound having 10 or more and less than 20 is denoted as A)”. Moreover, the IC50 in [3] amounted to 2.4 nM; in test [4], 4.3 nM; in test [5] it was 6.8 nM; in test [6], 2.9 nM; in [7], 0.6 nM; in test [8], 4.3 nM. This molecule had an IC50 in [9] of 2.2 nM.

The molecule `CCC[C@H]1C(=O)N[C@@H]([C@@H](C)CC)C(=O)N(C)CC(=O)N(C)[C@H]2C/C=C\CCN(C2=O)[C@@H](Cc2ccc(C)cc2)C(=O)N(C)CC(=O)N[C@@H](CCc2ccc(C(F)(F)F)c(OC)c2)C(=O)N2C[C@H](OCC)C[C@H]2C(=O)OC2(CCC2)C(=O)N(C)[C@@H](C2CCCC2)C(=O)N(C)[C@H](C(=O)N(C)C)CC(=O)N1C` [PP3388, (2S,8S,12R,14S,20S,23S,27S,30S,36S,38Z)-20-cyclopentyl-12-ethoxy-8-[2-[3-methoxy-4-(trifluoromethyl)phenyl]ethyl]-N,N,4,19,22,26,32,35-octamethyl-30-[(1S)-1-methylpropyl]-3,6,9,15,18,21,25,28,31,34,42-undecaoxo-27-propyl-2-(p-tolylmethyl)spiro[16-oxa-1,4,7,10,19,22,26,29,32,35-decazatricyclo[34.5.1.0^10,14]dotetracont-38-ene-17,1'-cyclobutane]-23-carboxamide] showed a Kd in test [1] of 0.16 nM. Further, the “NRAS /KRAS” value in [2] is “A (a compound having 10 or more and less than 20 is denoted as A)”. Besides, the “HRAS /KRAS” value at HRAS wild-type protein was “B (a compound having 3 or more and less than 10 is denoted as B)”. Besides, the IC50 in test [3] was 1.2 nM; in [4], 7.4 nM; in test [5] it was 10.5 nM; in test [6], 4.6 nM; in [7], 1.2 nM; in test [8] it was 6.7 nM. In [9], this molecule gave an IC50 of 4.9 nM.

The molecule `CCO[C@@H]1C[C@H]2C(=O)OC3(CCC3)C(=O)N(C)[C@@H](C3CCCC3)C(=O)N(C)[C@H](C(=O)N(C)C)CC(=O)N(C)[C@@H]([C@@H](C)OC)C(=O)N[C@@H]([C@@H](C)CC)C(=O)N(C)CC(=O)N(C)[C@H]3C/C=C\CCN(C3=O)[C@@H](Cc3ccc(C)cc3)C(=O)N(C)CC(=O)N[C@@H](CCc3ccc(C(F)(F)F)c(OC)c3)C(=O)N2C1` [PP3394, (2S,8S,12R,14S,20S,23S,27S,30S,36S,38Z)-20-cyclopentyl-12-ethoxy-27-[(1R)-1-methoxyethyl]-8-[2-[3-methoxy-4-(trifluoromethyl)phenyl]ethyl]-N,N,4,19,22,26,32,35-octamethyl-30-[(1S)-1-methylpropyl]-3,6,9,15,18,21,25,28,31,34,42-undecaoxo-2-(p-tolylmethyl)spiro[16-oxa-1,4,7,10,19,22,26,29,32,35-decazatricyclo[34.5.1.0^10,14]dotetracont-38-ene-17,1'-cyclobutane]-23-carboxamide] registered a Kd in [1] of 0.1 nM. For the same molecule, in test [2], the “NRAS /KRAS” value is “A (a compound having 10 or more and less than 20 is denoted as A)”. The “HRAS /KRAS” value at HRAS wild-type protein is “A (a compound having 10 or more and less than 20 is denoted as A)”. In addition, the IC50 was found to be 4.1 nM in test [3]; 3.9 nM in test [4]; 3.9 nM in test [5]; 2.5 nM in [6]; 0.4 nM in [7]; 4.7 nM in test [8]. Moreover, half-maximal inhibition in test [9] (IC50) required 1.8 nM.

Turning to `CCC[C@H]1C(=O)N[C@@H]([C@@H](C)CC)C(=O)N(C)CC(=O)N(C)[C@H]2C/C=C\CCN(C2=O)[C@@H](Cc2ccc(C(F)(F)F)cc2)C(=O)N(C)CC(=O)N[C@@H](CCc2ccc(C(F)(F)F)c(Cl)c2)C(=O)N2CC3(CC3)C[C@H]2C(=O)NC2(CCC2)C(=O)N(C)[C@@H](C(CC)CC)C(=O)N(C)[C@H](C(=O)N(C)C)CC(=O)N1C` [PP3414], the dissociation constant (Kd) in [1] came out at 0.37 nM. The “NRAS /KRAS” value in test [2] is reported as “AA (a compound having 20 or more is denoted as AA)”. Further, the “HRAS /KRAS” value on HRAS wild-type protein was “A (a compound having 10 or more and less than 20 is denoted as A)”. For the same molecule, the IC50 in test [3] was determined as 11.9 nM; in test [4], 19.7 nM; in [5], 29.3 nM; in test [6], 13 nM; in [7], 4.3 nM; in test [8], 50.9 nM. This molecule registered an IC50 in [9] of 29 nM.
